Data on 9 compounds can be found in patent publication US8039648B2, “Compounds used as dyes comperable to Alexa Fluor 350 dyes” (Pierce Biotechnology, Inc., priority 2009, dated 2011).

Series [1] relates to biotin and mouse IgG coated white 96-well plates. Put plainly: Plate-based functional testing of streptavidin and GAM conjugates (Example 12). To be noted: for signal sensitivities and intensities of bound conjugates compared to conjugates made with AMCA-NHS: GAM and SA conjugates made with the dye, 4 μg/ml, ex 346/em 442. Format: binding. As to the method:
Streptavidin and GAM conjugates made in Example 11 were analyzed on biotin and mouse IgG coated white 96-well plates. The plates were coated by making a 1:1 serial dilution of biotinylated bovine serum albumin (BSA, Thermo Scientific) and mouse IgG with starting concentrations of 2 μg/ml and 10 μg/ml, respectively. One hundred μl of each dilution was added per well. The last column on each plate was considered blank (PBS buffer only). The plates were incubated overnight at 4° C. and then blocked by washing 3×200 μl with SuperBlock Blocking Buffer in PBS (Thermo Scientific). Plates were washed 2×200 μl PBS-Surfact-Amp 20 and 1×100 μl PBS. All of the conjugates were diluted to 4 μg/ml in PBS buffer, added to the plates (100 μl/well) and incubated for one hour at room temperature (RT) (about 20° C. to about 22° C.). The plates were then washed 2×200 μl with PBS containing 0.05% Surfact-Amp 20 and 1×200 μl PBS. Finally 100 μl PBS buffer was added to the wells. The fluorescence intensity of the bound conjugate was measured on Tecan Safire using optimal Alexa Fluor 350 setting (ex 346/em 442) and optimal gain. FIGS. 7A and 7B show relative fluorescent units (RFU) and signal to background ratios (S/B), respectively, of goat anti-mouse antibodies (GAM) conjugated to amino-methyl-coumarin-acetate (AMCA), V07-09111-NHS, V07-09144-NHS, and Alexa Fluor 350-NHS. FIGS. 7C and 7D show RFU and S/B, respectively, of streptavidin (SA) conjugated to AMCA, V07-09111, V07-09144, and Alexa Fluor 350.

A short description of series [2]: Absorbance spectra of the NHS dyes in PBS buffer (Example 8). To be noted: PBS buffer pH 7.2, 10 mg/ml in DMF diluted 1:1000. Format: physicochemical. As to the method: Each of NHS-AMCA (MW=330 g/mole), V07-09111-NHS “8-isomer” (MW=874.1 g/mole), V07-0144-NHS “6-isomer” (MW=874.1 g/mole) and Alexa Fluor 350-NHS, Molecular Probes (Product #A10168) were reconstituted in DMF at 10 mg/ml and then diluted 1:1000 in PBS buffer (100 mM sodium phosphate, 150 mM NaCl; pH 7.2). Absorbance of the sample was evaluated from 440 nm to 240 nm on a UV Cary Spectrophotometer (Varian).

Series [3] is described as follows: UV-Vis absorption and emission maxima given with the synthesis examples. Type of series: physicochemical.
The nature of series [4]: Absorption and emission spectra in water and ethanol (Example 9). Format: physicochemical. The note with it: for emission spectrum maximum: excitation 345 nm. Here is the method: Absorption spectra of compounds V07-09111 and V07-09144 (concentrations between 10 μM and 50 μM) in water and ethanol (spectral grade) were recorded (Analytik Jena Specord 205 absorption spectrometer, quartz cuvettes with a pathlength of 1 cm). For emission spectra determination, the solutions were diluted in PBS (100 mM, pH 7.4, 100 mM sodium chloride, 5 mM sodium azide) to an absorbance of around 0.1 at a 1 cm pathlength; emission spectra were recorded on a JASCO FP-6600 fluorescence spectrometer; excitation wavelength 345 nm, excitation and emission slits were 3 nm and 6 nm, respectively. Both absorption and emission spectra were normalized to the maxima for presentation in FIGS. 2, 3, 4, and 5.
FIGS. 2 and 3 show the absorbance and emission spectra of V07-09144 in water and ethanol, respectively. FIGS. 4 and 5 show the absorbance and emission spectra of V07-09111 in water and ethanol, respectively. The absorbance and emission spectra of V07-09111 are 350 nm and 430 nm in water, and 351 nm and 443 nm in ethanol, respectively. The absorbance and emission spectra of V07-09144 are 350 nm and 440 nm in water, and 351 nm and 443 nm in ethanol, respectively.

The subject of another series is Lamin A. Description: Immunofluorescence detection of Lamin A in HeLa cells with dye-GAM conjugates (Example 13). Type of series: cell-based, human. To be noted: GAM conjugates made with the dye, 4 μg/ml, similar molar excesses. As to the method: Lamin A was stained in HeLa cells to compare […]-09111-GAM and […]-09144GAM to AMCA-GAM and Alexa Fluor 350-GAM. HeLa cells were seeded at about 10,000 cells/well in a 96-well clear bottom collagen coated tissue culture plate (BD Falcon BioCoat collagen) and cultured overnight. To fix the cells, the medium was removed and replaced at 100 μl/well with freshly prepared 4% paraformaldehyde (EMS Product #15710-S) diluted in 8 mM sodium phosphate, 2 mM potassium phosphate, 140 mM sodium chloride and 10 mM potassium chloride (PBS pH 7.4) and the cells were incubated at room temperature for 15 minutes. After 15 minutes, the cells were washed 3 times with PBS. After removal of PBS the cells were permeabilized with 100 μl/well of PBS containing 0.1% Surfact-Amps X-100. The permeabilization was carried out at room temperature (RT) for 15 minutes and then the cells were washed two times with PBS. The cells were blocked at RT for 30 minutes with (100 μl/well) PBS containing 0.1% Triton X-100 and supplemented with 2% of BlockerTM BSA (Thermo Scientific). […] The images shown in FIGS. 8A-H were acquired using the appropriate shift free optical filter set with a […] on Zeiss Axio Observer Z1 fluorescence microscope using an ORCA-ER-1394 Hamamatsu, CCD Digital Camera and the AxioVison Release 4.7 Software. […]

Where a name gives a salt, the structure may show the parent alone.

`Cc1c(CC(=O)ON2C(=O)CCC2=O)c(=O)oc2cc(N)c(S(=O)(=O)O)cc12` [Alexa Fluor 350-NHS, reference compound]: the “signal sensitivities and intensities of bound conjugates compared to conjugates made with AMCA-NHS” value in series [1] is “higher signal sensitivities and intensities”. Also, the “absorbance maxima (AbsMax)” value in series [2] worked out at 345 nm.
As for `Cc1c(CC(=O)ON2C(=O)CCC2=O)c(=O)oc2cc(N)ccc12` [NHS-AMCA, succinimidyl-7-amino-4-methylcoumarin-3-acetate, reference compound], in series [2], the “absorbance maxima (AbsMax)” value came to 349 nm.
With `Nc1ccc2c3c(c(=O)oc2c1S(=O)(=O)O)CCC3C(CC(=O)O)S(=O)(=O)[O-].[Na+]` (stereo not drawn) [V07-09089, 3-(7-amino-4-oxo-6-sulfo-1,2,3,4-tetrahydro-cyclopenta[c]chromen-1-yl)-3-sulfopropionic acid bis sodium salt], in series [1] (comparison among the DY-350 dyes), the “binding in a functional plate assay among the DY-350 dyes” value is listed as “lower binding in a functional plate assay”. In series [3] (UV-Vis (PBS)), the λem is recorded as 429 nm and the λmax worked out at 352 nm.
In series [3] (in methanol), `CCOC(=O)CCC1CCc2c1c1ccc(NC(=O)OCC)cc1oc2=O` (stereo not drawn) [V07-09096, 3-(7-ethoxycarbonylamino-4-oxo-1,2,3,4-tetrahydro-cyclopenta[c]chromen-1-yl)propionic acid ethylester] yielded a ε of 23000 L/mol/cm, a λem of 393 nm and a λmax of 328 nm.
On to `Nc1ccc2c3c(c(=O)oc2c1S(=O)(=O)O)CCC3C(CC(=O)NCCCC(=O)O)S(=O)(=O)O` (stereo not drawn) [V07-09111, 4-[3-(7-amino-4-oxo-6-sulfo-1,2,3,4-tetrahydro-cyclopenta[c]chromen-1-yl)-3-sulfo-propionylamino]-butyric acid], for which, in series [4] (in ethanol), the absorbance spectrum maximum stood at 351 nm and the emission spectrum maximum was 443 nm. Moreover, in series [4] (in water), the absorbance spectrum maximum came to 350 nm and the emission spectrum maximum stood at 430 nm. In series [3] (UV-Vis (PBS)), this compound gave a λem of 430 nm and a λmax of 352 nm.
Consider `Nc1ccc2c3c(c(=O)oc2c1S(=O)(=O)O)CCC3C(CC(=O)NCCCC(=O)ON1C(=O)CCC1=O)S(=O)(=O)O` (stereo not drawn) [V07-09111-NHS, 4-[3-(7-amino-4-oxo-6-sulfo-1,2,3,4-tetrahydro-cyclopenta[c]chromen-1-yl)-3-sulfo-propionylamino]-butyric acid NHS ester bis diisopropyethylammonium salt], for which the “specificity of staining and background compared to NHS-AMCA or NHS-Alexa Fluor 350 conjugates” value in the series on Lamin A was “higher specificity of staining for the target with lower background”. Besides, the “signal sensitivities and intensities of bound conjugates compared to conjugates made with AMCA-NHS” value in series [1] is “higher signal sensitivities and intensities”. For the same compound, the “absorbance maxima (AbsMax)” value in series [2] is 352 nm. In series [3] (UV-Vis (PBS)), the λem was determined as 430 nm and the λmax was 352 nm.
`Nc1c(S(=O)(=O)O)cc2c3c(c(=O)oc2c1S(=O)(=O)O)CCC3C(CC(=O)O)S(=O)(=O)[O-].[Na+]` (stereo not drawn) [V07-09140, 3-(7-amino-4-oxo-6,8-disulfo-1,2,3,4-tetrahydro-cyclopenta[c]chromen-1-yl)-3-sulfo-propionic acid tris sodium salt]: in series [3] (UV-Vis (PBS)), the λem amounted to 435 nm and the λmax was determined as 350 nm.
As to `Nc1cc2oc(=O)c3c(c2cc1S(=O)(=O)O)C(C(CC(=O)O)S(=O)(=O)O)CC3` (stereo not drawn) [V07-09142, 3-(7-amino-4-oxo-8-sulfo-1,2,3,4-tetrahydro-cyclopenta[c]chromen-1-yl)-3-sulfo propionic acid bis sodium salt], in series [3] (UV-Vis (PBS)), the λem is listed as 440 nm and the λmax is 349 nm.
`Nc1cc2oc(=O)c3c(c2cc1S(=O)(=O)O)C(C(CC(=O)NCCCC(=O)ON1C(=O)CCC1=O)S(=O)(=O)O)CC3` (stereo not drawn) [V07-09144-NHS]: the “specificity of staining and background compared to NHS-AMCA or NHS-Alexa Fluor 350 conjugates” value with Lamin A is “higher specificity of staining for the target with lower background”. Further, the “signal sensitivities and intensities of bound conjugates compared to conjugates made with AMCA-NHS” value in series [1] was “higher signal sensitivities and intensities”. The “absorbance maxima (AbsMax)” value in series [2] was determined as 347 nm.
